Counter-ions that a name gives are not always drawn.
biological target: T1, Glucokinase (Homo sapiens, UniProt P35557); experiment: Glucokinase activation assay (NADPH absorbance at 340 nm); type: biochemical; settings: glucokinase (ProteinOne Inc.), 5 mM D(+)-glucose, 24° C., 90 minutes
T1 construct: purchased ProteinOne Inc
T1 sequence (P35557 1-465): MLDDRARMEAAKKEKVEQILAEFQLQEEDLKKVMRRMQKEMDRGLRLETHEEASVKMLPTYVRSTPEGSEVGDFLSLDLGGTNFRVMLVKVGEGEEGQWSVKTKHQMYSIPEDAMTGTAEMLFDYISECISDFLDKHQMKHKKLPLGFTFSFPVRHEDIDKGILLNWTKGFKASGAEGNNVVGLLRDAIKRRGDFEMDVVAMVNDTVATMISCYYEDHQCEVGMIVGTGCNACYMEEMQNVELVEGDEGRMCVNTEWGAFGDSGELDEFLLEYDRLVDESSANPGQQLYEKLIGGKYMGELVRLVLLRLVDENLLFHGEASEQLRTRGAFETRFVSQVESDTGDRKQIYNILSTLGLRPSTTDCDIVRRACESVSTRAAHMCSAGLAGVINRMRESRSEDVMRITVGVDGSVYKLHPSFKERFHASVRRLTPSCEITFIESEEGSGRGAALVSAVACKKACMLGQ
Procedure, shortened: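 Glucokinase (100 ng/uL) coupled to G6PDH in 25 mM HEPES pH 7 with 5 mM D(+)-glucose, 1 mM ATP, 1 mM NADP; compounds added.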

Row | EC50 | Compound
1 | 355 nM | COC[C@H](C)Oc1cc(/C=C/c2cc(F)ccc2F)cc(C(=O)Nc2ccc(C(=O)OC)cn2)c1 [Example 68, 3-[trans-2-(2,5-difluorophenyl)vinyl]-5-(2-methoxy-(1S)-methyl-ethoxy)-N-(nicotinic acid-3-methyl ester-6-yl)-benzamide]
2 | 146 nM | COC[C@H](C)Oc1cc(/C=C/c2c(F)cccc2F)cc(C(=O)Nc2ccc(C(=O)OC)cn2)c1 [Example 69, 3-[trans-2-(2,6-difluorophenyl)vinyl]-5-(2-methoxy-(1S)-methyl-ethoxy)-N-(nicotinic acid-3-methyl ester-6-yl)-benzamide]
3 | 82.8 nM | COC[C@H](C)Oc1cc(/C=C/c2ccccc2OC)cc(C(=O)Nc2ccc(C(=O)O)cn2)c1 [Example 73, 3-[trans-2-(2-methoxyphenyl)vinyl]-5-(2-methoxy-(1S)-methyl-ethoxy)-N-(nicotinic acid-6-yl)-benzamide]
4 | 296 nM | COC[C@H](C)Oc1cc(/C=C/c2ccccc2[N+](=O)[O-])cc(C(=O)Nc2ccc(C(=O)O)cn2)c1 [Example 74, 3-[trans-2-(2-nitrophenyl)vinyl]-5-(2-methoxy-(1S)-methyl-ethoxy)-N-(nicotinic acid-6-yl)-benzamide]
5 | 165 nM | COC[C@H](C)Oc1cc(/C=C/c2cccc([N+](=O)[O-])c2)cc(C(=O)Nc2ccc(C(=O)O)cn2)c1 [Example 75, 3-[trans-2-(3-nitrophenyl)vinyl]-5-(2-methoxy-(1S)-methyl-ethoxy)-N-(nicotinic acid-6-yl)-benzamide]
6 | 55.8 nM | COC[C@H](C)Oc1cc(/C=C/c2ccccc2F)cc(C(=O)Nc2ccc(C(=O)O)cn2)c1 [Example 76, 3-[trans-2-(2-fluorophenyl)vinyl]-5-(2-methoxy-(1S)-methyl-ethoxy)-N-(nicotinic acid-6-yl)-benzamide]
7 | 120 nM | COC[C@H](C)Oc1cc(/C=C/c2ccc(F)cc2)cc(C(=O)Nc2ccc(C(=O)O)cn2)c1 [Example 77, 3-[trans-2-(4-fluorophenyl)vinyl]-5-(2-methoxy-(1S)-methyl-ethoxy)-N-(nicotinic acid-6-yl)-benzamide]
8 | 123 nM | COC[C@H](C)Oc1cc(/C=C/c2cccc(F)c2F)cc(C(=O)Nc2ccc(C(=O)O)cn2)c1 [Example 78, 3-[trans-2-(2,3-difluorophenyl)vinyl]-5-(2-methoxy-(1S)-methyl-ethoxy)-N-(nicotinic acid-6-yl)-benzamide]
9 | 95.1 nM | COC[C@H](C)Oc1cc(/C=C/c2ccc(F)cc2F)cc(C(=O)Nc2ccc(C(=O)O)cn2)c1 [Example 79, 3-[trans-2-(2,4-difluorophenyl)vinyl]-5-(2-methoxy-(1S)-methyl-ethoxy)-N-(nicotinic acid-6-yl)-benzamide]
10 | 134 nM | COC[C@H](C)Oc1cc(/C=C/c2cc(F)ccc2F)cc(C(=O)Nc2ccc(C(=O)O)cn2)c1 [Example 80, 3-[trans-2-(2,5-difluorophenyl)vinyl]-5-(2-methoxy-(1S)-methyl-ethoxy)-N-(nicotinic acid-6-yl)-benzamide]
11 | 89.8 nM | COC[C@H](C)Oc1cc(/C=C/c2c(F)cccc2F)cc(C(=O)Nc2ccc(C(=O)O)cn2)c1 [Example 81, 3-[trans-2-(2,6-difluorophenyl)vinyl]-5-(2-methoxy-(1S)-methyl-ethoxy)-N-(nicotinic acid-6-yl)-benzamide]
12 | 135 nM | COC[C@H](C)Oc1cc(CCc2ccccc2OC)cc(C(=O)Nc2ccn(C)n2)c1 [Example 93, 3-[2-(2-methoxyphenyl)ethyl]-5-(2-methoxy-(1S)-methyl-ethoxy)-N-(1-methyl-1-pyrazol-3-yl)-benzamide]
13 | 217 nM | COC[C@H](C)Oc1cc(CCc2ccccc2F)cc(C(=O)Nc2ccn(C)n2)c1 [Example 94, 3-[2-(2-fluorophenyl)ethyl]-5-(2-methoxy-(1S)-methyl-ethoxy)-N-(1-methyl-1-pyrazol-3-yl)-benzamide]
14 | 415 nM | COC[C@H](C)Oc1cc(CCc2cccc(N)c2)cc(C(=O)Nc2ccn(C)n2)c1 [Example 97, 3-[2-(3-aminophenyl)ethyl]-5-(2-methoxy-(1S)-methyl-ethoxy)-N-(1-methyl-1-pyrazol-3-yl)-benzamide]
15 | 208 nM | COC[C@H](C)Oc1cc(CCc2c(F)cccc2F)cc(C(=O)Nc2ccc(C(=O)O)cn2)c1 [Example 109, 3-[2-(2,6-difluorophenyl)ethyl]-5-(2-methoxy-(1S)-methyl-ethoxy)-N-(nicotinic acid-6-yl)-benzamide]
16 | 275 nM | COC[C@H](C)Oc1cc(CCc2ccccc2NC(=O)Cc2cccs2)cc(C(=O)Nc2nccs2)c1 [Example 114]
17 | 229 nM | CCOC(=O)Nc1ccccc1CCc1cc(O[C@@H](C)COC)cc(C(=O)Nc2nccs2)c1 [Example 117, 3-{2-[2-(carbamic acid ethyl ester)phenyl]ethyl}-5-(2-methoxy-(1S)-methyl-ethoxy)-N-(thiazol-2-yl)-benzamide]
18 | 170 nM | CCOC(=O)CC(=O)Nc1cccc(CCc2cc(O[C@@H](C)COC)cc(C(=O)Nc3nccs3)c2)c1 [Example 121, 3-{2-[3-(malonamic acid ethyl ester)phenyl]ethyl}-5-(2-methoxy-(1S)-methyl-ethoxy)-N-(thiazol-2-yl)-benzamide]
19 | 205 nM | CCOC(=O)Nc1cccc(CCc2cc(O[C@@H](C)COC)cc(C(=O)Nc3nccs3)c2)c1 [Example 122, 3-{2-[3-(carbamic acid ethyl ester)phenyl]ethyl}-5-(2-methoxy-(1S)-methyl-ethoxy)-N-(thiazol-2-yl)-benzamide]
20 | 200 nM | COC[C@H](C)Oc1cc(CCc2cccc(NC(=O)c3ccncc3)c2)cc(C(=O)Nc2nccs2)c1 [Example 128, 3-[2-(3-isonicotinamidephenyl)ethyl]-5-(2-methoxy-(1S)-methyl-ethoxy)-N-(thiazol-2-yl)-benzamide]
21 | 204 nM | CCOC(=O)CC(=O)Nc1ccc(CCc2cc(O[C@@H](C)COC)cc(C(=O)Nc3nccs3)c2)cc1 [Example 135, 3-{2-[4-(malonamic acid ethyl ester)phenyl]ethyl}-5-(2-methoxy-(1S)-methyl-ethoxy)-N-(thiazol-2-yl)-benzamide]
22 | 270 nM | CCOC(=O)Nc1ccc(CCc2cc(O[C@@H](C)COC)cc(C(=O)Nc3nccs3)c2)cc1 [Example 136, 3-{2-[4-(carbamic acid ethyl ester)phenyl]ethyl}-5-(2-methoxy-(1S)-methyl-ethoxy)-N-(thiazol-2-yl)-benzamide]
23 | 357 nM | COC[C@H](C)Oc1cc(CCc2ccc(NC(=O)c3ccncc3)cc2)cc(C(=O)Nc2nccs2)c1 [Example 142, 3-[2-(4-isonicotinamidephenyl)ethyl]-5-(2-methoxy-(1S)-methyl-ethoxy)-N-(thiazol-2-yl)-benzamide]
24 | 222 nM | COC[C@H](C)Oc1cc(CCc2cccc(NC(=O)CC(=O)O)c2)cc(C(=O)Nc2nccs2)c1 [Example 147, 3-[2-(3-malonamic acid phenyl)ethyl]-5-(2-methoxy-(1S)-methyl-ethoxy)-N-(thiazol-2-yl)-benzamide]
25 | 417 nM | CCC(COC)Oc1cc(/C=C/c2ccc(F)cc2)cc(C(=O)Nc2nccs2)c1 (stereo not drawn) [Example 148, 3-[trans-2-(4-fluorophenyl)vinyl]-5-(1-methoxymethyl-propoxy)-N-(thiazol-2-yl)-benzamide]

Row | Compound | EC50
26 | CC(C)COc1cc(/C=C/c2ccccc2F)cc(C(=O)Nc2nccs2)c1 [Example 70, 3-[trans-2-(2-fluorophenyl)vinyl]-5-isobutoxy-N-(thiazol-2-yl)-benzamide] | 102 nM
27 | CC(C)COc1cc(/C=C/c2cc(F)ccc2F)cc(C(=O)Nc2nccs2)c1 [Example 71, 3-[trans-2-(2,5-difluorophenyl)vinyl]-5-isobutoxy-N-(thiazol-2-yl)-benzamide] | 84.8 nM
28 | CC(C)COc1cc(/C=C/c2c(F)cccc2F)cc(C(=O)Nc2nccs2)c1 [Example 72, 3-[trans-2-(2,6-difluorophenyl)vinyl]-5-isobutoxy-N-(thiazol-2-yl)-benzamide] | 121 nM
29 | COC[C@H](C)Oc1cc(CCc2ccccc2N)cc(C(=O)Nc2nccs2)c1 [Example 110, 3-[2-(2-aminophenyl)ethyl]-5-(2-methoxy-(1S)-methyl-ethoxy)-N-(thiazol-2-yl)-benzamide hydrochloride] | 68.2 nM
30 | COC[C@H](C)Oc1cc(CCc2cccc(N)c2)cc(C(=O)Nc2nccs2)c1 [Example 111, 3-[2-(3-aminophenyl)ethyl]-5-(2-methoxy-(1S)-methyl-ethoxy)-N-(thiazol-2-yl)-benzamide hydrochloride] | 54.7 nM
31 | COC[C@H](C)Oc1cc(CCc2ccc(N)cc2)cc(C(=O)Nc2nccs2)c1 [Example 112, 3-[2-(4-aminophenyl)ethyl]-5-(2-methoxy-(1S)-methyl-ethoxy)-N-(thiazol-2-yl)-benzamide hydrochloride] | 126 nM
